# According to patent publication US3947589A (priority 1971, dated 1976):
# Read-outs that look alike come from different tables or passages of the source.
# Tests used:
# acute oral toxicity test = conditions: in vivo
# From the text: The results of an acute oral toxicity test of the active ingredient used in the present invention is that its LD50 is about 6 g/kg in the case of N-lauroyl-L-valine. This is an extremely low toxicity.
# citrus melanose = test: inhibitory test against Citrus melanose; type: in vivo; conditions: for pest or weed control at 500 ppm: read-out: Preventive value; for Extent infection: Table 4, untreated 53; for Extent infection / Extent of infection: 500 ppm, about 2-3 weeks after inoculation; for Extent of infection: Table 5, untreated 57
# From the text: Experimental example 3 : inhibitory test against Citrus melanose a. Test plant: shoots of about 3 years grown seedlings of citrus "Onshu" (2 - 4 trees planted in about 20 cm claypot) b. Solution used for test
# As control fungicide, "Daisen" [trade (trade name, product of Nihon-NohyakuCo., Ltd., wettable powder containing zinc ethylene bis (dithiocarbamate)]was sprayed at 1000 ppm. c. Inoculum and the method of inoculation
# In order to prepare suspension of pycnospores, distilled and sterilized water was poured on the culture twigs with citrus melanose in a test tube. The suspension containing about 200 of pycnospores was prepared under the observation of microscope of 150 magnification and then sprayed inoculation on the test plants treated as above. After inoculation, the test plants were placed in the inoculation box at 27°C and relative humidity of above 95% for about 3 days. Then, they were transferred into the greenhouse. […]
# d. The method of inspection
# About 2 - 3 weeks after inoculation, the entire leaves of shoots was inspected for the development of disease and the state of infection was evaluated on a scale of 0 to 3 as follows:
# 1 : 1 -- 50 of disease spots
# 2 : 51 -- 150 of disease spots
# 3 : above 151 of disease spots
# The extent of infection and the preventive value were calculated according to the following equations (I) and (II), respectively. [formula] wherein n1, n2 and n3 are number of leaves inspected to be the states of infection 1, 2 and 3, respectively and N is the total number of leaves. [formula]
# [1] = system: cucumber downy mildew (Pseudoperonospore cubensis); test: inhibitory test against cucumber downy mildew; type: in vivo; conditions: for pest or weed control at 500 ppm: Cucumis sativus; for Number of leaves infected (outside) / Number of leaves infected (inside): 23rd of May
# Procedure: Experimental example 4 : inhibitory test against cucumber downy mildew
# Cucumber seeds (variety "Shinhikari No. A") were planted in seed-beds at the biginning of October, three cucumber seeds being planted per seed-bed, and they were grown in a greenhouse made of vinyl resin. This experiment was performed as three-repeated cultivation.
# The test plants treated thus were left to spontaneous infection.
# [2] = system: Piricularia oryzae (rice blast); conditions: 500 ppm
# [3] = system: Piricularia oryzae (rice blast); test: whole plant or invertebrate; conditions: Pyricularia oryzae, 48 h, read-out: Preventive value
# [4] = Table 4, about 2-3 weeks after inoculation
# [5] = Table 6, 500 ppm, four sprays, inside of leaves, read-out: Preventive value (inside)
# [6] = Table 6, 500 ppm, four sprays, outside of leaves, read-out: Preventive value (outside)
# [7] = Table 6, 500 ppm, four sprays, untreated 12
# [8] = Table 6, 500 ppm, four sprays, untreated 22
# [9] = Table 1, 50 ml per pot, two days after infection, untreated 33.0
# [10] = read-out: Preventive value (inside)
# [11] = read-out: Preventive value (outside)
# [12] = Table 5, about 2-3 weeks after inoculation
# [13] = Table 7, 500 ppm, four sprays, untreated 13
# [14] = Table 7, 500 ppm, four sprays, untreated 15
# [15] = Table 7, 500 ppm, four sprays, inside of leaves, read-out: Preventive value (inside)
# [16] = Table 7, 500 ppm, four sprays, outside of leaves, read-out: Preventive value (outside)
Structure (SMILES),pest or weed control at 500 ppm (citrus melanose; [4]) [%],Extent infection (citrus melanose) [%],"Number of leaves infected (outside) [1, 7]","Number of leaves infected (inside) [1, 8]","Average number of disease lesions per leaf [2, 9]",pest or weed control at 500 ppm [3] [%],further results
"CCCCCCCCCCCC(=O)N[C@H](C(=O)O)C(C)C [No. 2, N-lauroyl-L-valine]",–,–,–,–,–,–,LD50 (acute oral toxicity test): ~6000 mg/kg
CCCCCCCCCCCC(=O)NCC(=O)O [compound 1],72,15,4,6,1.7,95,"pest or weed control at 500 ppm [1, 5]: 73%; pest or weed control at 500 ppm [1, 6]: 67%"
CCCCCCCCCCCC(=O)N[C@H](C(=O)O)C(C)C [compound 2],–,–,–,–,6.6,80,–
CCCCCCCCCCCC(=O)NC(Cc1ccc([N+](=O)[O-])cc1)C(=O)O (centres unmarked) [compound 3],50,26,6,9,8.9,73,"pest or weed control at 500 ppm [1, 5]: 59%; pest or weed control at 500 ppm [1, 6]: 50%"
CCCCCCCCCCCCCCCCCC(=O)N[C@@H](Cc1ccccc1)C(=O)O [compound 4],60,21,7,10,7.3,78,"pest or weed control at 500 ppm [1, 10]: 47%; pest or weed control at 500 ppm [1, 11]: 42%"
CCCCCCCC/C=C\CCCCCCCC(=O)NCC(=O)O [compound 5],–,–,–,–,11.0,67,–
CCCCCCCCCCCCCCCCCC(=O)NCC(=O)O [compound 6],68,17,–,–,6.6,80,–
CCCCCCCCCCCCCCCCCC(=O)NC(C)C(=O)O (centres unmarked) [compound 7],–,–,5,8,5.9,82,"pest or weed control at 500 ppm [1, 5]: 64%; pest or weed control at 500 ppm [1, 6]: 58%"
CCCCCCCCCCCC(=O)NC(Cc1ccccc1)C(=O)O (centres unmarked) [compound 8],59,22,3,7,11.0,67,"pest or weed control at 500 ppm [1, 5]: 68%; pest or weed control at 500 ppm [1, 6]: 75%"
CCCCCCCCCCCCCC(=O)NCC(=O)O [compound 9],–,–,7,9,9.9,70,"pest or weed control at 500 ppm [1, 5]: 59%; pest or weed control at 500 ppm [1, 6]: 42%"
CCCCCCCCCCCC(=O)N[C@@H](CC(=O)O)C(=O)O [compound 10],74,14,–,–,11.6,65,–
CCCCCCCCCCCC(=O)N[C@H](C(=O)O)[C@@H](C)O [compound 11],–,–,–,–,7.6,77,–
CCCCCCCCCC(=O)N[C@@H](Cc1ccccc1)C(=O)O [compound 12],–,–,4,6,11.6,65,"pest or weed control at 500 ppm [1, 5]: 73%; pest or weed control at 500 ppm [1, 6]: 67%"
CCCCCCCCCCCC(=O)N[C@@H](CC(C)C)C(=O)O [compound 13],–,–,7,9,8.9,73,"pest or weed control at 500 ppm [1, 5]: 59%; pest or weed control at 500 ppm [1, 6]: 42%"
C=CCCCCCCCCC(=O)N[C@@H](CC(C)C)C(=O)O [compound 14],65,19,–,–,5.6,83,–
CCCCCCCCCCCC(=O)N(C)CC(=O)O [compound 15],–,–,–,–,7.4,88,–
CCCCCCCCCC(=O)NC(CCSC)C(=O)O (centres unmarked) [compound 16],54,24,–,–,11.0,67,–
CCCCCCCCCCCC(=O)N[C@H](C(=O)OCC)C(C)C [compound 19],–,–,–,–,7.3,78,–
CCCCCCCCCCCCCC(=O)N[C@@H](CCC(=O)O)C(=O)O [compound 20],–,–,–,–,9.9,70,–
CCCCCCCCCCCCCC(=O)N[C@@H](CCCNC(=N)N)C(=O)OCC [compound 21],–,–,–,–,–,75,"pest or weed control at 500 ppm (citrus melanose; [12]): 73%; Extent of infection (citrus melanose): 15%; pest or weed control at 500 ppm [1, 10]: 47%; pest or weed control at 500 ppm [1, 11]: 55%; Number of leaves infected (outside) [1, 13]: 5; Number of leaves infected (inside) [1, 14]: 8; Average number of disease lesions per leaf ([2]; Table 2, untreated 34.2): 8.5"
CCCCCCCCCCCCCC(=O)N[C@@H](CCCCN)C(=O)OC [compound 23],–,–,–,–,–,82,"pest or weed control at 500 ppm (citrus melanose; [12]): 64%; Extent of infection (citrus melanose): 21%; pest or weed control at 500 ppm [1, 15]: 47%; pest or weed control at 500 ppm [1, 16]: 45%; Number of leaves infected (outside) [1, 13]: 7; Number of leaves infected (inside) [1, 14]: 8; Average number of disease lesions per leaf ([2]; Table 2, untreated 34.2): 6.2"
CCCCCCCCCCCC(=O)N[C@@H](CCCN)C(=O)OC [compound 24],–,–,–,–,–,78,"pest or weed control at 500 ppm (citrus melanose; [12]): 68%; Extent of infection (citrus melanose): 18%; pest or weed control at 500 ppm [1, 15]: 47%; pest or weed control at 500 ppm [1, 16]: 52%; Number of leaves infected (outside) [1, 13]: 6; Number of leaves infected (inside) [1, 14]: 8; Average number of disease lesions per leaf ([2]; Table 2, untreated 34.2): 7.3"
CCCCCCCCCCCCCC(=O)N[C@@H](Cc1c[nH]cn1)C(=O)OC [compound 25],–,–,–,–,–,85,"Average number of disease lesions per leaf ([2]; Table 2, untreated 34.2): 5.1"
CCCCCCCCCCCC(=O)N[C@@H](CCCNC(N)=O)C(=O)OC [compound 26],–,–,–,–,–,82,"Average number of disease lesions per leaf ([2]; Table 2, untreated 34.2): 6.2"
CCCCCCCCCCCC(=O)N[C@@H](CCCNC(=N)N)C(=O)OCC [compound 27],–,–,–,–,–,80,"pest or weed control at 500 ppm (citrus melanose; [12]): 75%; Extent of infection (citrus melanose): 14%; pest or weed control at 500 ppm [1, 15]: 40%; pest or weed control at 500 ppm [1, 16]: 52%; Number of leaves infected (outside) [1, 13]: 6; Number of leaves infected (inside) [1, 14]: 9; Average number of disease lesions per leaf ([2]; Table 2, untreated 34.2): 6.8"
CCCCCCCCCCCCCCCCCC(=O)N[C@@H](CCCNC(=N)N)C(=O)OCC [compound 28],–,–,–,–,–,78,"pest or weed control at 500 ppm (citrus melanose; [12]): 73%; Extent of infection (citrus melanose): 15%; Average number of disease lesions per leaf ([2]; Table 2, untreated 34.2): 7.3"
